Measured values from patent publication US20240287138A1, “CYCLIC PEPTIDES FOR INHIBITING TNF RECEPTOR 1 ACTIVITY” (Merck Sharp & Dohme LLC, priority 2023, published 2024).
Numbered stars: 1 amine (or outer) side, 2 acyl side, 3 side chain; on linkers, the order of the positions; unused ones are H or OH. Bridge positions count the residues as written; N and C are the ends. Square brackets hold non-standard residues; d marks the D form. Peptide text beside a SMILES is read from it. Trp(βS-Me,7-OMe) = COc1cccc2c([C@H](C)[C@H](N)C(=O)O)c[nH]c12; Ala(1-bicyclo(1.1.1)pentyl) = N[C@@H](CC12CC(C1)C2)C(=O)O; Phe(3-CH2NH2) = O=C([C@H](Cc1cccc(CN[*:3])c1)N[*:1])[*:2]; Trp(βS-Me) = C[C@@H](c1c[nH]c2ccccc12)[C@H](N)C(=O)O; Trp(4-Cl) = N[C@@H](Cc1c[nH]c2cccc(Cl)c12)C(=O)O; Trp(7-Cl) = N[C@@H](Cc1c[nH]c2c(Cl)cccc12)C(=O)O; Phe(4-CONH2) = NC(=O)c1ccc(C[C@H](N)C(=O)O)cc1; Phe(4-COOH) = N[C@@H](Cc1ccc(C(=O)O)cc1)C(=O)O; Trp(7-aza) = N[C@@H](Cc1c[nH]c2ncccc12)C(=O)O; Phe(4-CH2NH2) = NCc1ccc(C[C@H](N)C(=O)O)cc1; dPro(cis-4-NH2) = N[C@H]1CN[C@@H](C(=O)O)C1; N(CH2CH2COOH)Gly = O=C(O)CCNCC(=O)O; Pip(4-aza) = O=C(O)[C@@H]1CNCCN1; 4Pal = N[C@@H](Cc1ccncc1)C(=O)O; NMeE = CN[C@@H](CCC(=O)O)C(=O)O; Cit = NC(=O)NCCC[C@H](N)C(=O)O; NMeN = CN[C@@H](CC(N)=O)C(=O)O; Pip = O=C(O)[C@@H]1CCCCN1; αMeS = C[C@](N)(CO)C(=O)O; Nle = CCCC[C@H](N)C(=O)O; Sar = CNCC(=O)O

Key:
[1] = molecular target: T1, human soluble TNFR1 (sTNFR1) (Homo sapiens, UniProt P19438); experiment: Human sTNFR1-peptide displacement assay (LanthaScreen Eu TR-FRET binding assay)
T1 construct: made in house; host or cells: Sf21 (baculovirus)
T1 sequence (P19438 with tags, fused parts or gaps): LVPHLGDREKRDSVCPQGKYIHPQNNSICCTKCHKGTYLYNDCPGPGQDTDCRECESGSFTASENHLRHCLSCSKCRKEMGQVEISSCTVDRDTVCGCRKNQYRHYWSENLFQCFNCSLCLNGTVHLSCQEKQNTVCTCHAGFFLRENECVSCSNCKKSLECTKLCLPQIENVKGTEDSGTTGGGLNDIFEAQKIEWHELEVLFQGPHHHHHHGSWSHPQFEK
Summary of the method: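 Readout is the 665/615 nm TR-FRET ratio (Eu anti-His donor, streptavidin-Alexa647 acceptor), normalized to DMSO and saturating displacer, fit by Morrison-based five-parameter logistic for Kd^app. His-tagged sTNFR1 (1-211) prebound to 100 nM biotinylated peptide SEQ ID NO.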

[2] = molecular target: T2, human TNFR2 ECD protein (Homo sapiens, UniProt P20333); experiment: SPR off-target binding (selectivity) to human TNFR2 ECD
T2 construct: HRV 3C protease cleavage site (C); 6His (C, cleaved yes); made in house; host or cells: Sf21 insect cells (baculovirus), secreted
T2 sequence (P20333 23-257): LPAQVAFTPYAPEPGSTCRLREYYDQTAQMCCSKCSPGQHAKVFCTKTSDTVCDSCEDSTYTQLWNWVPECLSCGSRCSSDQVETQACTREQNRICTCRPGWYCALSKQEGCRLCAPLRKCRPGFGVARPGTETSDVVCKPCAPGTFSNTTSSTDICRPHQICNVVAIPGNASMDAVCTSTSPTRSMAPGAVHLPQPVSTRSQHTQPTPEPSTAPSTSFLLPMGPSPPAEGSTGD
Summary of the method: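 SPR kinetics: peptides over captured avi-biotinylated receptor ECDs, TNFR1 for affinity, TNFR2 run in parallel for off-target binding. Running buffer HEPES pH 7.4 with 150 mM NaCl, 3 mM EDTA, 0.05% P20, 2% DMSO; surface regenerated between analytes. Affinity derived from kon/koff.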

Structure (SMILES)	IC50 [1]	Kd [2]	Kd [1]
C[C@@H](c1c[nH]c2ccccc12)[C@@H]1NC(=O)CN(C)C(=O)[C@H](Cc2c[nH]cn2)NC(=O)[C@H](Cc2ccc(C(=O)O)cc2)NC(=O)[C@](C)(CO)NC(=O)[C@H](Cc2c[nH]c3c(Cl)cccc23)NC(=O)[C@H](Cc2ccc(C(=O)O)cc2)NC(=O)[C@H](CC(N)=O)NC(=O)[C@H]2CCCN2C(=O)[C@H]([C@@H](C)c2c[nH]c3ccccc23)NC(=O)[C@H](CO)NC(=O)[C@H](Cc2ccc(CN)cc2)NC(=O)[C@H](CCCNC(N)=O)NC(=O)CSC[C@@H](C(N)=O)NC1=O [SEQ ID NO. 215] ({CH2CO}-[Cit][Phe(4-CH2NH2)]S[Trp(βS-Me)][dP]N[Phe(4-COOH)][Trp(7-Cl)][αMeS][Phe(4-COOH)]H[Sar][Trp(βS-Me)]C-NH2; thioether N-14)	2.85 nM	> 1000 nM	
CCCC[C@@H]1NC(=O)CSC[C@@H](C(N)=O)NC(=O)[C@H]([C@@H](C)c2c[nH]c3c(OC)cccc23)NC(=O)CN(C)C(=O)[C@H](Cc2ccc(O)cc2)NC(=O)[C@H](Cc2ccc(C(=O)O)cc2)NC(=O)[C@](C)(CO)NC(=O)[C@H](Cc2c[nH]c3c(Cl)cccc23)NC(=O)[C@H](Cc2ccc(OC)cc2)NC(=O)[C@H](CC(N)=O)NC(=O)[C@H](CCC(=O)O)N(C)C(=O)[C@H](Cc2c[nH]c3ccccc23)NC(=O)[C@@H]2CNCCN2C(=O)[C@H](Cc2ccncc2)NC1=O [SEQ ID NO. 218] ({CH2CO}-[Nle][4Pal][Pip(4-aza)]W[NMeE]NY(Me)[Trp(7-Cl)][αMeS][Phe(4-COOH)]Y[Sar][Trp(βS-Me,7-OMe)]C-NH2; thioether N-14)	1.15 nM	> 1000 nM	
CCCC[C@@H]1NC(=O)CSC[C@@H](C(N)=O)NC(=O)[C@H]([C@@H](C)c2c[nH]c3c(OC)cccc23)NC(=O)CN(C)C(=O)[C@H](Cc2ccc(O)cc2)NC(=O)[C@H](Cc2ccc(C(N)=O)cc2)NC(=O)[C@](C)(CO)NC(=O)[C@H](Cc2c[nH]c3c(Cl)cccc23)NC(=O)[C@H](Cc2ccncc2)NC(=O)[C@H](CC(N)=O)NC(=O)[C@H]2C[C@@H](N)CN2C(=O)[C@H](Cc2c[nH]c3ncccc23)NC(=O)[C@@H]2CNCCN2C(=O)[C@H](Cc2ccncc2)NC1=O [SEQ ID NO. 219] ({CH2CO}-[Nle][4Pal][Pip(4-aza)][Trp(7-aza)][dPro(cis-4-NH2)]N[4Pal][Trp(7-Cl)][αMeS][Phe(4-CONH2)]Y[Sar][Trp(βS-Me,7-OMe)]C-NH2; thioether N-14)	0.3 nM	> 1000 nM	0.15 nM
CCCC[C@@H]1NC(=O)CSC[C@@H](C(N)=O)NC(=O)[C@H]([C@@H](C)c2c[nH]c3c(OC)cccc23)NC(=O)CN(C)C(=O)[C@H](Cc2ccc(O)cc2)NC(=O)[C@H](Cc2ccc(C(=O)O)cc2)NC(=O)[C@](C)(CO)NC(=O)[C@H](Cc2c[nH]c3c(Cl)cccc23)NC(=O)[C@H](Cc2ccncc2)NC(=O)[C@H](CC(N)=O)NC(=O)CN(CCC(=O)O)C(=O)[C@H](Cc2c[nH]c3ncccc23)NC(=O)[C@@H]2CCCCN2C(=O)[C@H](Cc2ccncc2)NC1=O [SEQ ID NO. 220] ({CH2CO}-[Nle][4Pal][Pip][Trp(7-aza)][N(CH2CH2COOH)Gly]N[4Pal][Trp(7-Cl)][αMeS][Phe(4-COOH)]Y[Sar][Trp(βS-Me,7-OMe)]C-NH2; thioether N-14)		> 1000 nM	0.55 nM
CN1CC(=O)N[C@@H](Cc2c[nH]c3cccc(Cl)c23)C(=O)N[C@H](C(N)=O)CSCC(=O)N[C@@H](CC23CC(C2)C3)C(=O)N[C@@H](Cc2cccc(CN)c2)C(=O)N[C@@H](CO)C(=O)N[C@@H](Cc2c[nH]c3c(Cl)cccc23)C(=O)N2CCC[C@@H]2C(=O)N(C)[C@@H](CC(N)=O)C(=O)N[C@@H](Cc2ccc(C(=O)O)cc2)C(=O)N[C@@H](Cc2c[nH]c3c(Cl)cccc23)C(=O)N[C@@](C)(CO)C(=O)N[C@@H](Cc2ccc(C(=O)O)cc2)C(=O)N[C@@H](Cc2cccc(CN)c2)C1=O [SEQ ID NO. 222] ({CH2CO}-[Ala(1-bicyclo(1.1.1)pentyl)][Phe(3-CH2NH2)]S[Trp(7-Cl)][dP][NMeN][Phe(4-COOH)][Trp(7-Cl)][αMeS][Phe(4-COOH)][Phe(3-CH2NH2)][Sar][Trp(4-Cl)]C-NH2; thioether N-14)	1.73 nM	> 1000 nM	
